The structures appear in SMILES notation.

Sequence of hHDAC6 (Q9UBN7 whole entry): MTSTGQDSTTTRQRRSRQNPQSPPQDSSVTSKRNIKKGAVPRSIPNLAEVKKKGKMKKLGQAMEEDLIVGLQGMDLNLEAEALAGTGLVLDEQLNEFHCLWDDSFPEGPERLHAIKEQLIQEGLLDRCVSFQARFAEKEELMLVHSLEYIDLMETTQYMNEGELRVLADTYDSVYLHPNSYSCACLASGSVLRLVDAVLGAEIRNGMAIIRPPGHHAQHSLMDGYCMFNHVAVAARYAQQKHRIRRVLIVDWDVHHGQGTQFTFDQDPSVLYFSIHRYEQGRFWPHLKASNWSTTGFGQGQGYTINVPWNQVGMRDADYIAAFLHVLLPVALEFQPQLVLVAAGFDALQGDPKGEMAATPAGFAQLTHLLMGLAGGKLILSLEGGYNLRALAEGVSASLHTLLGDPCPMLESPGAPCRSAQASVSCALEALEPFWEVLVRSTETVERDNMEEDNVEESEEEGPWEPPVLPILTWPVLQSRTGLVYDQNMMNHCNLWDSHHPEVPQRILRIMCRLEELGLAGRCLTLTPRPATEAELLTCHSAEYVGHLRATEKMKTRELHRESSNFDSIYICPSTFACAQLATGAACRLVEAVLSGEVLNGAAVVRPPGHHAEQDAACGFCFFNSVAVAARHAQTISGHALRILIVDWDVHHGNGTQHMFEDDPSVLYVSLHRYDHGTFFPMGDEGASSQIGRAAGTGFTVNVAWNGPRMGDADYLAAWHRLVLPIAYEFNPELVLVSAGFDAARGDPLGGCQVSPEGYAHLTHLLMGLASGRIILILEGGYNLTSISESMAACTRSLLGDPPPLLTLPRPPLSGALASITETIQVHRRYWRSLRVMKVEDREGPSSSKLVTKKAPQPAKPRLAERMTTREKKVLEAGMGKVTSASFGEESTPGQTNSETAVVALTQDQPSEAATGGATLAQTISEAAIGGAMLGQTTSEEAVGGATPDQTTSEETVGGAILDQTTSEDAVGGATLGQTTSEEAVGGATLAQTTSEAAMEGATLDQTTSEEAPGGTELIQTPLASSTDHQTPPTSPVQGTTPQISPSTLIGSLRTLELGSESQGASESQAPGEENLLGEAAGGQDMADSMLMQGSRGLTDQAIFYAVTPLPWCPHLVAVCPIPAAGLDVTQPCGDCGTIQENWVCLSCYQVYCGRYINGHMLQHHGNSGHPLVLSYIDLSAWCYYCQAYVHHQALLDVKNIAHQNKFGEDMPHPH

This test concerns the target hHDAC6 (Homo sapiens (Human), UniProt Q9UBN7). The test is described as follows: HDAC6 inhibition protocol. Particulars: read-out: IC50 (nM) of enzyme activity HDAC6; hHDAC6 1.20 nM, Acetylated Peptide A 2 μM, 1 hour at RT.
Procedure: After enzymatic reactions, reaction was stopped by adding 5 μl of 10 μM solution of a known inhibitor. The fluorescent signal of substrate and product was measured by means of microfluidics mobility assay in a EZ Reader II equipment. The percentage of conversion of substrate into product was calculated by the equipment software based on the area of the peaks.
The percentage of conversion data were analyzed using the computer software, Graphpad Prism. In the absence of the compound, the conversion (Ct) in each data set was defined as 100% activity. In the absence of HDAC, the conversion (Cb) in each data set was defined as 0% activity. The percent activity in the presence of each compound was calculated according to the following equation: % inhibition=(Ct−C)/(Ct−Cb), where C=the percentage of conversion in the presence of the compound.
The values of % inhibition versus a series of compound concentrations were then plotted using non-linear regression analysis of Sigmoidal dose-response curve generated with the equation Y=B+(T−B)/1+10((Log EC50−X)×Hill Slope), where Y=percent inhibition, B=minimum percent inhibition, T=maximum percent inhibition, X=logarithm of compound and Hill Slope=slope factor or Hill coefficient. The IC50 value was determined by the concentration causing a half-maximal percent activity.
The buffer assay used in the inhibition hHDAC6 assay is: Hepes 50 mM, KCl 100 mM, Tween 20 0.001%, BSA 0.01%; pH=7.4.
Consider `FC(F)c1nnc(-c2ccc(Cn3cc(-c4cccs4)nn3)cc2)o1` [Example 36, 2-(difluoromethyl)-5-(4-((4-(thiophen-2-yl)-1H-1,2,3-triazol-1-yl)methyl)phenyl)-1,3,4-oxadiazole], for which the IC50 – broadly, the point on the concentration scale where inhibition reaches its midpoint – was 105 nM.

In the case of `Cc1cc2nnn(Cc3ccc(-c4nnc(C(F)F)o4)cn3)c2cc1C` [Example 59, 2-(difluoromethyl)-5-(6-((5,6-dimethyl-1H-benzo[d][1,2,3]triazol-1-yl)methyl)pyridin-3-yl)-1,3,4-oxadiazole], the half-maximal inhibitory concentration (IC50) is 85.1 nM.

Turning to `FC(F)c1nnc(-c2ccc(Cn3cc(-c4ccccc4Cl)nn3)nc2)o1` [Example 44, 2-(6-((4-(2-chlorophenyl)-1H-1,2,3-triazol-1-yl)methyl)pyridin-3-yl)-5-(difluoromethyl)-1,3,4-oxadiazole], the IC50 was 37.1 nM.

As for `FC(F)c1nnc(-c2ccc(Cn3cnc4ccc(Br)cc43)nc2)o1` [Example 62, 2-(6-((6-bromo-1H-benzo[d]imidazol-1-yl)methyl)pyridin-3-yl)-5-(difluoromethyl)-1,3,4-oxadiazole], the IC50 was determined as 61.8 nM.

For `FC(F)c1nnc(-c2ccc(Cn3nnc(-c4ccccc4)c3Cl)cc2)o1` [Example 51, 2-(4-((5-chloro-4-phenyl-1H-1,2,3-triazol-1-yl)methyl)phenyl)-5-(difluoromethyl)-1,3,4-oxadiazole], the 50% inhibitory concentration (IC50) turned out to be 87.9 nM.

Turning to `FC(F)c1nnc(-c2ccc(Cn3cnc4cc(Br)ccc43)nc2)o1` [Example 63, 2-(6-((5-bromo-1H-benzo[d]imidazol-1-yl)methyl)pyridin-3-yl)-5-(difluoromethyl)-1,3,4-oxadiazole], the half-inhibitory concentration (IC50) came to 48.3 nM.

`FC(F)c1nnc(-c2ccc(Cn3cc(-c4ccc(Cl)cc4)nn3)nc2)o1` [Example 43, 2-(6-((4-(4-chlorophenyl)-1H-1,2,3-triazol-1-yl)methyl)pyridin-3-yl)-5-(difluoromethyl)-1,3,4-oxadiazole]: the IC50 stood at 43.1 nM.

Turning to `FC(F)c1nnc(-c2ccc(C(Cl)n3cc(-c4ccccc4)nn3)nc2)o1` (centres unmarked) [Example 55, 2-(6-(chloro(4-phenyl-1H-1,2,3-triazol-1-yl)methyl)pyridin-3-yl)-5-(difluoromethyl)-1,3,4-oxadiazole], the 50% inhibitory concentration (IC50) was determined as 58.2 nM.

Take `Fc1ccccc1-c1nnn(Cc2ccc(-c3nnc(C(F)F)o3)cn2)c1Cl` [Example 67, 2-(6-((5-chloro-4-(2-fluorophenyl)-1H-1,2,3-triazol-1-yl)methyl)pyridin-3-yl)-5-(difluoromethyl)-1,3,4-oxadiazole]: the IC50 amounted to 67.4 nM.

For the molecule `FC(F)c1nnc(-c2ccc(Cn3nnc4ccc(Br)cc43)nc2)o1` [Example 65, 2-(6-((6-bromo-1H-benzo[d][1,2,3]triazol-1-yl)methyl)pyridin-3-yl)-5-(difluoromethyl)-1,3,4-oxadiazole], the IC50 came out at 40.4 nM.

For the molecule `Cc1nnn(Cc2ccc(-c3nnc(C(F)F)o3)cc2)c1-c1ccccc1` [Example 40, 2-(difluoromethyl)-5-(4-((4-methyl-5-phenyl-1H-1,2,3-triazol-1-yl)methyl)phenyl)-1,3,4-oxadiazole], the IC50 was 686 nM.

In the case of `FC(F)c1nnc(-c2ccc(Cn3cc(-c4ccc(C(F)(F)F)cc4)nn3)cc2)o1` [Example 30, 2-(difluoromethyl)-5-(4-((4-(4-(trifluoromethyl)phenyl)-1H-1,2,3-triazol-1-yl)methyl)phenyl)-1,3,4-oxadiazole], the IC50 worked out at 238 nM.

Turning to `FC(F)c1nnc(-c2ccc(Cn3cc(-c4cc(Cl)cc(Cl)c4)nn3)nc2)o1` [Example 47, 2-(6-((4-(3,5-dichlorophenyl)-1H-1,2,3-triazol-1-yl)methyl)pyridin-3-yl)-5-(difluoromethyl)-1,3,4-oxadiazole], the IC50 came to 25.7 nM.

Take `FC(F)c1nnc(-c2ccc(Cn3cnc4cc(Cl)c(Cl)cc43)cc2)o1` [Example 10, 2-(4-((5,6-dichloro-1H-benzo[d]imidazol-1-yl)methyl)phenyl)-5-(difluoromethyl)-1,3,4-oxadiazole]: the IC50 was determined as 60.2 nM.

For `Cc1c(-c2ccccc2)nnn1Cc1ccc(-c2nnc(C(F)F)o2)cc1` [Example 39, 2-(difluoromethyl)-5-(4-((5-methyl-4-phenyl-1H-1,2,3-triazol-1-yl)methyl)phenyl)-1,3,4-oxadiazole], the IC50 was 366 nM.

Consider `FC(F)c1nnc(-c2ccc(Cn3nnc(-c4ccccc4)c3Cl)nc2)o1` [Example 52, 2-(6-((5-chloro-4-phenyl-1H-1,2,3-triazol-1-yl)methyl)pyridin-3-yl)-5-(difluoromethyl)-1,3,4-oxadiazole], for which the IC50 is 48.4 nM.

Take `FC(F)c1nnc(-c2ccc(Cn3cc(-c4ccsc4)nn3)cc2)o1` [Example 35, 2-(difluoromethyl)-5-(4-((4-(thiophen-3-yl)-1H-1,2,3-triazol-1-yl)methyl)phenyl)-1,3,4-oxadiazole]: the IC50 was determined as 131 nM.

As for `FC(F)c1nnc(-c2ccc(Cn3nnc4cc(Br)ccc43)nc2)o1` [Example 64, 2-(6-((5-bromo-1H-benzo[d][1,2,3]triazol-1-yl)methyl)pyridin-3-yl)-5-(difluoromethyl)-1,3,4-oxadiazole], the IC50 came out at 48.7 nM.

With `COc1cccc(-c2cn(Cc3ccc(-c4nnc(C(F)F)o4)cn3)nn2)c1` [Example 50], the IC50 was 43.5 nM.

As to `FC(F)c1nnc(-c2ccc(Cn3ccc4ccccc43)cc2)o1` [Example 1, 2-(4-((1H-indol-1-yl)methyl)phenyl)-5-(difluoromethyl)-1,3,4-oxadiazole], the IC50 came to 3040 nM.

On to `FC(F)c1nnc(-c2ccc(Cn3nc4ccc(Br)cc4n3)nc2)o1` [Example 66, 2-(6-((5-bromo-2H-benzo[d][1,2,3]triazol-2-yl)methyl)pyridin-3-yl)-5-(difluoromethyl)-1,3,4-oxadiazole], for which the IC50 was 33.3 nM.

For `O=C(c1cn(Cc2ccc(-c3nnc(C(F)F)o3)cc2)c2ccccc12)C(F)F` [Example 5, 1-(1-(4-(5-(difluoromethyl)-1,3,4-oxadiazol-2-yl)benzyl)-1H-indol-3-yl)-2,2-difluoroethanone], the IC50 came to 239 nM.

With `CC1(C)C(=O)N(Cc2ccc(-c3nnc(C(F)F)o3)cc2)c2ccccc21` [Example 15, 1-(4-(5-(difluoromethyl)-1,3,4-oxadiazol-2-yl)benzyl)-3,3-dimethylindolin-2-one], the IC50 amounted to 214 nM.

`FC(F)c1nnc(-c2ccc(Cn3c(C(F)(F)F)nc4cc(Cl)c(Cl)cc43)nc2)o1` [Example 58, 2-(6-((5,6-dichloro-2-(trifluoromethyl)-1H-benzo[d]imidazol-1-yl)methyl)pyridin-3-yl)-5-(difluoromethyl)-1,3,4-oxadiazole]: the IC50 came out at 121 nM.

As for `FC(F)c1nnc(-c2ccc(Cn3cnc(-c4ccccc4)c3)nc2)o1` [Example 26, 2-(difluoromethyl)-5-(6-((4-phenyl-1H-imidazol-1-yl)methyl)pyridin-3-yl)-1,3,4-oxadiazole], the IC50 stood at 48.3 nM.

`FC(F)c1nnc(-c2ccc(Cn3nnc4ccccc43)nc2)o1` [Example 21, 2-(6-((1H-benzo[d][1,2,3]triazol-1-yl)methyl)pyridin-3-yl)-5-(difluoromethyl)-1,3,4-oxadiazole]: the IC50 came out at 103 nM.

Take `COC(=O)c1cn(Cc2ccc(-c3nnc(C(F)F)o3)cc2)nn1` [Example 28, methyl 1-(4-(5-(difluoromethyl)-1,3,4-oxadiazol-2-yl)benzyl)-1H-1,2,3-triazole-4-carboxylate]: the IC50 came out at 2800 nM.

Take `FC(F)c1nnc(-c2ccc(Cn3cnc4ccccc43)cc2)o1` [Example 8, 2-(4-((1H-benzo[d]imidazol-1-yl)methyl)phenyl)-5-(difluoromethyl)-1,3,4-oxadiazole]: the IC50 was 387 nM.

As to `FC(F)c1nnc(-c2ccc(Cn3ccc4cccnc43)cc2)o1` [Example 4, 2-(4-((1H-pyrrolo[2,3-b]pyridin-1-yl)methyl)phenyl)-5-(difluoromethyl)-1,3,4-oxadiazole], the IC50 was 1760 nM.

On to `Cc1cc2ncn(Cc3ccc(-c4nnc(C(F)F)o4)cn3)c2cc1C` [Example 61, 2-(difluoromethyl)-5-(6-((5,6-dimethyl-1H-benzo[d]imidazol-1-yl)methyl)pyridin-3-yl)-1,3,4-oxadiazole], for which the IC50 was found to be 187 nM.

For `FC(F)c1nnc(-c2ccc(Cn3nnnc3-c3ccccc3)cc2)o1` [Example 17, 2-(difluoromethyl)-5-(4-((5-phenyl-1H-tetrazol-1-yl)methyl)phenyl)-1,3,4-oxadiazole], the IC50 is 920 nM.

For `CC(C)(C)c1cn(Cc2ccc(-c3nnc(C(F)F)o3)cc2)nn1` [Example 31, 2-(4-((4-(tert-butyl)-1H-1,2,3-triazol-1-yl)methyl)phenyl)-5-(difluoromethyl)-1,3,4-oxadiazole], the IC50 turned out to be 273 nM.

For the molecule `FC(F)c1nnc(-c2ccc(Cn3ncc4ccccc43)cc2)o1` [Example 6, 2-(4-((1H-indazol-1-yl)methyl)phenyl)-5-(difluoromethyl)-1,3,4-oxadiazole], the IC50 came out at 417 nM.

Turning to `FC(F)c1nnc(-c2ccc(Cn3cc(-c4ccc(Cl)cc4)nn3)cc2)o1` [Example 29, 2-(4-((4-(4-chlorophenyl)-1H-1,2,3-triazol-1-yl)methyl)phenyl)-5-(difluoromethyl)-1,3,4-oxadiazole], the IC50 worked out at 95.6 nM.

Consider `Cc1cccc2nnn(Cc3ccc(-c4nnc(C(F)F)o4)cc3)c12` [Example 12], for which the IC50 stood at 190 nM.

Consider `Fc1cc(-c2cn(Cc3ccc(-c4nnc(C(F)F)o4)cn3)nn2)cc(F)c1F` [Example 57, 2-(difluoromethyl)-5-(6-((4-(3,4,5-trifluorophenyl)-1H-1,2,3-triazol-1-yl)methyl)pyridin-3-yl)-1,3,4-oxadiazole], for which the IC50 stood at 149 nM.

Turning to `FC(F)c1nnc(-c2ccc(Cn3cc(-c4cccnc4)nn3)cc2)o1` [Example 34, 2-(difluoromethyl)-5-(4-((4-(pyridin-3-yl)-1H-1,2,3-triazol-1-yl)methyl)phenyl)-1,3,4-oxadiazole], the IC50 was 202 nM.

As to `O=C1c2ccccc2C(=O)N1Cc1ccc(-c2nnc(C(F)F)o2)cc1` [Example 16, 2-(4-(5-(difluoromethyl)-1,3,4-oxadiazol-2-yl)benzyl)isoindoline-1,3-dione], the IC50 was determined as 258 nM.

The values above are taken from patent US12202823B2 (QUIMATRYX, S.L., priority 2019, dated 2025).
